From patent US20240376100A1 (Redona Therapeutics, Inc., priority 2021, published 2024)
Structures can show the parent of a compound that is named as a salt.

molecular target: PAPD5 enzyme (Homo sapiens, UniProt Q8NDF8); assay: PAPD5 assay (AMP incorporation onto 3'-terminus of RNA substrate, fluorescence quench); format: biochemical; settings: PAPD5 protein 0.3 nM, ATP 50 μM, 30 minutes preincubation, room temperature; read-out: Potency PAPD5 IC50
Protocol: The purpose of the PAPD5 assay is to determine compound potency against PAPD5 enzyme through the measurement of IC50. Compound inhibition is measured as a function of AMP incorporation onto the 3′-terminus of an RNA substrate in the presence of active PAPD5, ATP, and inhibitor. The PAPD5 assay was done in a black, non-binding, 384 well plate (Corning #3575). All steps were performed at room temperature. For a typical assay, a 40 ul aliquot of assay buffer (50 mM HEPES pH 7.3, 20 mM KCl, 10 mM MgCl2, 10 mMM DTT, 0.01% Triton X-100, 40 U/ml RNAsin (Promega)) containing PAPD5 protein (final 10 concentration: 0.3 nM) and ATP (final concentration 50 μM) was added to each well. Next, 1 ul of compound in 100% DMSO is transferred from a compound dilution plate in which the compound is serially diluted. The plate was placed on a plate shaker for 30 seconds to produce mixing, then incubated for 30 minutes. Next, 10 ul of a 5× mix of RNA substrate (5′-fluorescein-AUAGAG-3′ (IDT)) and a DNA oligonucleotide that is complementary to the AMP modified RNA product (5′-TCTCTATT-3′-TAMRA, wherein the first two nucleotides are locked nucleic acids (IDT)) was added (final concentrations: 5 nM and 20 nM, respectively). The plate was placed on a plate shaker for 30 seconds to produce mixing then immediately placed in a Biotek Cytation 5 plate reader, and the time-dependent decrease in fluorescein fluorescence resulting from annealing of the TAMRA labeled quenching probe was recorded, using the kinetics mode of the reader (typical run time is 90 minutes). Reaction rates were obtained using linear fits to the early portion of progress curves. IC50 values were calculated using a four-parameter fit with 100% enzyme activity determined from the DMSO control and 0% activity from control samples lacking UTP.
“+” represents an IC50 value that is greater than 50 PM; “++” represents an IC50 value that is greater than 10 μM and equal to or less than 50 μM; “+++” represents an IC50 value that is greater than 1 μM and equal to or less than 10 μM; and “++++” represents an IC50 value that is equal to or less than 1 μM.

Chain of PAPD5 enzyme (Q8NDF8 whole entry): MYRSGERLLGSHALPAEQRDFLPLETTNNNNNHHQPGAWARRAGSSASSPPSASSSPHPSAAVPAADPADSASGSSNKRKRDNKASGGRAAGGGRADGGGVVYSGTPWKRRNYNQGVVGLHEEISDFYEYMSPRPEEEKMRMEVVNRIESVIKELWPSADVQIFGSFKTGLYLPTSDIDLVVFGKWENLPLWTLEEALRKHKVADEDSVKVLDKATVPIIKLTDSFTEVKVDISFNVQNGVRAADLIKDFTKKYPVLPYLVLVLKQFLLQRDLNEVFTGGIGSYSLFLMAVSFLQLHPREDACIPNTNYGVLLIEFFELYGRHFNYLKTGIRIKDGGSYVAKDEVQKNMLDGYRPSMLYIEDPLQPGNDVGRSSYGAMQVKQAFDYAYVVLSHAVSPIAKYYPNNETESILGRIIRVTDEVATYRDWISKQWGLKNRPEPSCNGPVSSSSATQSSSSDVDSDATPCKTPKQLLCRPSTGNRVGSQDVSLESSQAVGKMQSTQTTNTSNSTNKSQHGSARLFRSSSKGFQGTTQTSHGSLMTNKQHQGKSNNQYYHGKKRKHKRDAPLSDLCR

SMILES | IC50 [µM]
O=C(O)c1cn(-c2cnccn2)c2nc(N3Cc4cccnc4C3)c(Cl)cc2c1=O [Example 2, 6-chloro-4-oxo-1-(pyrazin-2-yl)-7{5H,6H,7H pyrrolo[3,4-b]pyridin-6-yl}-1,4-dihydro-1,8-naphthyridine-3-carboxylic acid] | ≤ 1
O=C(O)c1cn(-c2ccc(O)c(F)c2)c2cc(N3Cc4cccnc4C3)c(Cl)cc2c1=O [Example 3, 6-chloro-1-(3-fluoro-4-hydroxyphenyl)-4-oxo-7-{5H,6H,7H-pyrrolo[3,4-b]pyridin-6-yl}-1,4-dihydroquinoline-3-carboxylic acid] | ≤ 1
Cc1cc(NC(=O)OC(C)(C)C)ncc1-n1cc(C(=O)O)c(=O)c2cc(Cl)c(N3Cc4cccnc4C3)cc21 [Example 4, 1-(6-{[(tert-butoxy)carbonyl]amino}-4-methylpyridin-3-yl)-6-chloro-4-oxo-7-{5H,6H,7H-pyrrolo[3,4-b]pyridin-6-yl}-1,4-dihydroquinoline-3-carboxylic acid] | ≤ 1
Cc1cc(N)ncc1-n1cc(C(=O)O)c(=O)c2cc(Cl)c(N3Cc4cccnc4C3)cc21 [Example 5, 1-(6-amino-4-methylpyridin-3-yl)-6-chloro-4-oxo-7-{5H,6H,7H-pyrrolo[3,4-b]pyridin-6-yl}-1,4-dihydroquinoline-3-carboxylicacid hydrochloride] | ≤ 1
O=C(O)c1cn(CC2CCC2)c2nc(N3Cc4cccnc4C3)c(Cl)cc2c1=O [Example 6, 6-chloro-1-(cyclobutylmethyl)-4-oxo-7-{5H,6H,7H-pyrrolo[3,4-b]pyridin-6-yl}-1,4-dihydro-1,8-naphthyridine-3-carboxylic acid] | ≤ 1
N#Cc1cc2c(=O)c(C(=O)O)cn(CC3CCC3)c2nc1N1Cc2cccnc2C1 [Example 7, 6-cyano-1-(cyclobutylmethyl)-4-oxo-7-{5H,6H,7H-pyrrolo[3,4-b]pyridin-6-yl}-1,4-dihydro-1,8-naphthyridine-3-carboxylic acid] | ≤ 1
O=C(O)c1cn(-c2ccc(O)cc2F)c2cc(-n3ncc4cccc(Br)c43)c(F)cc2c1=O [Example 9, 7-(7-bromo-1H-indazol-1-yl)-6-fluoro-1-(2-fluoro-4-hydroxyphenyl)-4-oxo-1,4-dihydroquinoline-3-carboxylic acid] | ≤ 1
O=C(O)c1cn(-c2ccc(O)cc2F)c2cc(-n3ncc4cc(Cl)cc(Cl)c43)c(F)cc2c1=O [Example 10, 7-(5,7-dichloro-1H-indazol-1-yl)-6-fluoro-1-(2-fluoro-4-hydroxyphenyl)-4-oxo-1,4-dihydroquinoline-3-carboxylic acid] | ≤ 1
Cc1nn(-c2cc3c(cc2F)c(=O)c(C(=O)O)cn3-c2ccc(O)cc2F)cc1Br [Example 11, 7-(4-bromo-3-methyl-1H-pyrazol-1-yl)-6-fluoro-1-(2-fluoro-4-hydroxyphenyl)-4-oxo-1,4-dihydroquinoline-3-carboxylic acid] | ≤ 1
O=C(O)c1cn(-c2ccc(O)cc2F)c2cc(-n3ccc(Cl)n3)c(F)cc2c1=O [Example 12, 7-(3-chloro-1H-pyrazol-1-yl)-6-fluoro-1-(2-fluoro-4-hydroxyphenyl)-4-oxo-1,4-dihydroquinoline-3-carboxylic acid] | ≤ 1
COc1ccc2c(c1)CN(c1cc3c(cc1F)c(=O)c(C(=O)O)cn3-c1ccc(O)cc1F)C2 [Example 14, 6-fluoro-1-(2-fluoro-4-hydroxyphenyl)-7-(5-methoxyisoindolin-2-yl)-4-oxo-1,4-dihydroquinoline-3-carboxylic acid] | ≤ 1
O=C(O)c1cn(-c2ccc(O)cc2F)c2cc(N3Cc4cccc(F)c4C3)c(F)cc2c1=O [Example 15, 6-fluoro-1-(2-fluoro-4-hydroxyphenyl)-7-(4-fluoroisoindolin-2-yl)-4-oxo-1,4-dihydroquinoline-3-carboxylic acid] | ≤ 1
O=C(O)c1cn(-c2ccc(O)cc2)c2cc(N3Cc4cccnc4C3)c(Cl)cc2c1=O [Example 16, 6-chloro-7-(5,7-dihydro-6H-pyrrolo[3,4-b]pyridin-6-yl)-1-(4-hydroxyphenyl)-4-oxo-1,4-dihydroquinoline-3-carboxylic acid] | ≤ 1
O=C(O)c1cn(-c2ccc(CO)cc2F)c2cc(N3Cc4cccnc4C3)c(Cl)cc2c1=O [Example 17, 6-chloro-7-(5,7-dihydro-6H-pyrrolo[3,4-b]pyridin-6-yl)-1-(2-fluoro-4-(hydroxymethyl)phenyl)-4-oxo-1,4-dihydroquinoline-3-carboxylic acid] | ≤ 1

Next, values leading:

IC50 [µM] | SMILES
≤ 1 | O=C(O)c1cn(-c2ccc(O)cc2)c2cc(N3Cc4cccnc4C3)c(F)cc2c1=O [Example 18, 7-(5,7-dihydro-6H-pyrrolo[3,4-b]pyridin-6-yl)-6-fluoro-1-(4-hydroxyphenyl)-4-oxo-1,4-dihydroquinoline-3-carboxylic acid]
≤ 1 | O=C(O)c1cn(-c2ccc(O)cc2)c2cc(N3Cc4ccncc4C3)c(F)cc2c1=O [Example 19, 7-(1,3-dihydro-2H-pyrrolo[3,4-c]pyridin-2-yl)-6-fluoro-1-(4-hydroxyphenyl)-4-oxo-1,4-dihydroquinoline-3-carboxylic acid]
≤ 1 | O=C(O)c1cn(-c2cnccn2)c2cc(N3Cc4ccccc4C3)c(Cl)cc2c1=O [Example 21, 6-chloro-7-(isoindolin-2-yl)-4-oxo-1-(pyrazin-2-yl)-1,4-dihydroquinoline-3-carboxylic acid]
≤ 1 | CN(C)C1CN(c2ccc(-n3cc(C(=O)O)c(=O)c4cc(Cl)c(N5Cc6cccnc6C5)nc43)cn2)C1 [Example 22, 6-chloro-7-(5,7-dihydro-6H-pyrrolo[3,4-b]pyridin-6-yl)-1-(6-(3-(dimethylamino)azetidin-1-yl)pyridin-3-yl)-4-oxo-1,4-dihydro-1,8-naphthyridine-3-carboxylic acid]
≤ 1 | Nc1ncc(-n2cc(C(=O)O)c(=O)c3cc(Cl)c(N4Cc5cccnc5C4)cc32)cc1F [Example 23, 1-(6-amino-5-fluoropyridin-3-yl)-6-chloro-7-(5,7-dihydro-6H-pyrrolo-[3,4-b]pyridin-6-yl)-4-oxo-1,4-dihydroquinoline-3-carboxylic acid]
≤ 1 | Cc1nc(N)ccc1-n1cc(C(=O)O)c(=O)c2cc(Cl)c(N3Cc4cccnc4C3)cc21 [Example 24, 1-(6-amino-2-methylpyridin-3-yl)-6-chloro-7-(5,7-dihydro-6H-pyrrolo[3,4-b]pyridin-6-yl)-4-oxo-1,4-dihydroquinoline-3-carboxylic acid]
≤ 1 | Cc1cc(N2CC(N(C)C)C2)ncc1-n1cc(C(=O)O)c(=O)c2cc(Cl)c(N3Cc4cccnc4C3)cc21 [Example 25, 6-chloro-7-(5,7-dihydro-6H-pyrrolo[3,4-b]pyridin-6-yl)-1-(6-(3-(dimethylamino)azetidin-1-yl)-4-methylpyridin-3-yl)-4-oxo-1,4-dihydroquinoline-3-carboxylic acid]
≤ 1 | O=C(O)c1cn(-c2ccc(O)cc2F)c2cc(N3Cc4cccnc4C3)c(Cl)cc2c1=O [Example 27, 6-chloro-7-(5,7-dihydro-6H-pyrrolo[3,4-b]pyridin-6-yl)-1-(2-fluoro-4-hydroxyphenyl)-4-oxo-1,4-dihydroquinoline-3-carboxylic acid]
≤ 1 | O=C(O)c1cn(-c2ccc(O)c(F)c2)c2cc(N3Cc4cccnc4C3)c(F)cc2c1=O [Example 28, 7-(5,7-dihydro-6H-pyrrolo[3,4-b]pyridin-6-yl)-6-fluoro-1-(3-fluoro-4-hydroxyphenyl)-4-oxo-1,4-dihydroquinoline-3-carboxylic acid]
≤ 1 | O=C(O)c1cn(-c2ccc(O)cc2F)c2cc(N3Cc4cccnc4C3)c(F)cc2c1=O [Example 29, 7-(5,7-dihydro-6H-pyrrolo[3,4-b]pyridin-6-yl)-6-fluoro-1-(2-fluoro-4-hydroxyphenyl)-4-oxo-1,4-dihydroquinoline-3-carboxylic acid]
≤ 1 | O=C(O)c1cn(-c2ccc(O)cc2F)c2cc(N3Cc4ccccc4C3)c(Cl)cc2c1=O [Example 30, 6-chloro-1-(2-fluoro-4-hydroxyphenyl)-7-(isoindolin-2-yl)-4-oxo-1,4-dihydroquinoline-3-carboxylic acid]
≤ 1 | O=C(O)c1cn(-c2ccc(O)c(F)c2)c2cc(N3Cc4ccccc4C3)c(F)cc2c1=O [Example 31, 6-fluoro-1-(3-fluoro-4-hydroxyphenyl)-7-(isoindolin-2-yl)-4-oxo-1,4-dihydroquinoline-3-carboxylic acid]
≤ 1 | O=C(O)c1cn(-c2ccc(O)cc2F)c2cc(N3Cc4ccccc4C3)c(F)cc2c1=O [Example 32, 6-fluoro-1-(2-fluoro-4-hydroxyphenyl)-7-(isoindolin-2-yl)-4-oxo-1,4-dihydroquinoline-3-carboxylic acid]
